Values of other authors in patent JP2018030810A, “ゲフィチニブを有効成分とする医薬錠剤の製造方法” (Nippon Kayaku Co Ltd, priority 2016, dated 2018).
Converted amounts (≈) assume the structure as drawn. Where two headings read alike, the source gives them in different places.

For `COc1cc2ncnc(Nc3ccc(F)c(Cl)c3)c2cc1OCCCN1CCOCC1` [ゲフィチニブ, N−(3−クロロ−4−フルオロフェニル)−7−メトキシ−6−[3−(モルフォリン−4−イル)プロポキシ]キナゾリン−4−アミン], the “solubility (in words)” value (pH1) is given as “可溶性”, the “solubility (in words)” value (pH4〜6) is given as “溶解度は大きく低下” and the solubility (pH6) is given as roughly 1000 µg/mL (≈ 2240 µM). The “solubility (in words)” value (pH7) was “実質的に不溶性”, the “aqueous solubility (in words)” value (small intestine environment, pH4〜8) was “水溶解度が極端に低下する” and the “aqueous solubility (in words)” value (stomach, acidic environment pH1〜4) was “良好な水溶解度”. The “solubility (in words)” value (water) was “ほとんど溶解しない”.
